This note sets out measurements from patent publication US20040219626A1, “Method for identifying fungicidally active compounds” (priority 2002, published 2004).

Data set [1] deals with farnesyl-pyrophosphate synthase (Saccharomyces cerevisiae, UniProt P08524). The data set can be described thus: farnesyl-pyrophosphate synthase inhibition assay (coupled assay, malachite green, 384-well MTP). The class given is biochemical. The settings on record: read-out: p150 (converted). The source says:
A preferred method exploits the fact that two pyrophosphate molecules are liberated in the farnesyl-pyrophosphate synthase reaction. The activity, or the decrease or increase in activity, of the polypeptide according to the invention can thus be determined by enzymatically cleaving the pyrophosphate by means of inorganic pyrophosphatase and subsequently detecting the orthophosphate which has been liberated, using a phosphate detection reagent. The lower, or inhibited, activity of the polypeptide according to the invention is monitored with reference to the photospectrometric determination of the decrease or increase, of the orthophosphate which has been liberated. The concentration of phosphate which has been liberated can then be determined with a phosphate detection reagent at an absorption maximum at 620 nm.
The measurement can also be carried out in formats conventionally used for HTS or UHTS assays, for example in microtitre plates, into which for example a total volume of 5 to 50 μl is introduced per reaction or per well and the individual components are present in one of the above-stated final concentrations (cf. Example 2). […] The polypeptide according to the invention is then added in the abovementioned assay buffer containing the auxiliary enzyme inorganic pyrophosphatase, which is required for the coupled assay, thus starting the reaction. The mixture is then incubated for example for up to 40 minutes at a suitable temperature, and the increase in absorption is measured at 620 nm.
A further measurement is carried out in a corresponding mixture, but without addition of a candidate molecule and without addition of a polypeptide according to the invention (negative control). Another measurement, in turn, is carried out in the absence of a candidate molecule, but in the presence of the polypeptide according to the invention (positive control). The negative and the positive controls thus provide the reference values for the mixtures in the presence of a candidate molecule.
A pI50 value of 8, for example, corresponds to half the maximum inhibition of the enzyme at a concentration of 10 nM.
384-well microtitre plates from Greiner were used for identifying farnesyl-pyrophosphate synthase modulators.
The negative control was pipetted into the first column.
The positive control was pipetted into the second column.
A test substance in a concentration of 2 μM in DMSO was introduced into the remaining columns, 5 μl of the assay buffer being used for diluting the substance to a volume of. […] This was followed by incubation at room temperature for 40 minutes. The reaction was subsequently quenched by addition of 50 μl of malachite green solution (three parts of 0.025% malachite green solution (in water) were mixed with one part of 2% ammonium heptamolybdate solution (in 4 M HCl) and 39 parts of this solution were mixed with one part of 7.5% Tween 20 (in water) immediately prior to testing) and the mixture was incubated for 90 minutes at room temperature. The orthophosphate generated during the reaction was measured by determining the absorption at 620 nm in a Tecan […]luor Plus suitable for MTPs.

The subject of data set [2] is Phytophthora infestans (Plant affected: tomato). The format is in vivo. The settings on record: concentration at which an efficacy of 50% was achieved, protective.
In data set [3] the test system is Phytophthora infestans (Plant affected: barley). The class given is in vivo. As to conditions: concentration at which an efficacy of 50% was achieved, protective.
The subject of data set [4] is Sphaerotheca fuliginea (plant affected: cucumber). The data set can be described thus: protective action for plants (spray, inoculation). The class given is in vivo. The settings on record: concentration for 50% efficacy. The procedure:
(§1) The effect, on fungi, of compounds found with the aid of a method according to the invention can also be assayed by testing their protective action for plants. To this end a suitable active substance preparation is prepared. For example 1 part by weight of active substance is mixed with, for example, 24.5 parts by weight of acetone and 24.5 parts by weight of dimethylformamide and 1 part by weight of alkylaryl polyglycol ether as emulsifier, and the concentrate is diluted to the desired concentration.
(§2) To test for protective action, young plants are sprayed with the active substance preparation. After the spray coating has dried on, the plants are inoculated with an aqueous suspension (conidia suspension) of a fungus and then remain for 1 day in an incubation chamber at approximately 20° C. and 100% relative atmospheric humidity.
(§3) The plants are then placed in a greenhouse at approx. 12° C. and a relative atmospheric humidity of approx. 90%.
(§4) The test is evaluated 1 to 12 days after the inoculation. 0% means an efficacy which corresponds to that of the control, while an efficacy of 100% means that no disease is observed.
(§5) The examples in question can be seen from the fact that an affected plant has been stated.

The subject of data set [5] is Alternaria solani (plant affected: tomato). Description: protective action for plants (spray, inoculation). The format is in vivo. As to conditions: concentration for 50% efficacy. The procedure: as §1, §2, §3, §4, §5
For data set [6], the system named is Erysiphe graminis (plant affected: barley). The data set can be described thus: protective action for plants (spray, inoculation). The format is in vivo. As to conditions: concentration for 50% efficacy. Here is the method:
as §1, §2, §3, §4, §5

The test system of data set [7] is Leptosphaeria nodorum (plant affected: wheat). Description: protective action for plants (spray, inoculation). The class given is in vivo. As to conditions: concentration for 50% efficacy. The procedure: as §1, §2, §3, §4, §5
The test system of data set [8] is Pyricularia oryzae (plant affected: rice). The class given is in vivo. The settings on record: concentration for 50% efficacy, protective.
In data set [9] the target is yeast farnesyl-pyrophosphate synthase (Saccharomyces cerevisiae, UniProt P08524). The settings on record: substrate of yeast farnesyl-pyrophosphate synthase.
Substrate in data set [10]: C=C(C)CCO[P@@](=O)(O)OP(=O)(O)O
The data set can be described thus: purified protein, by the assay type. The settings on record: other: substrate of yeast farnesyl-pyrophosphate synthase.

Turning to `CC(=O)[n+]1ccc(-c2cc[n+](C(C)=O)cc2)cc1` [Example 1], in [1], the IC50 is 7.41 µM.

With `CC(=O)Nc1nc(-c2ccccc2OCC(N)=O)cc(-c2cccc(NC(=O)c3ccc([N+](=O)[O-])cc3)c2)c1C#N` [Example 2], the IC50 in data set [1] was 31.6 µM.

In the case of `CC(Oc1ccccc1)C(=O)Nc1cc(C(=O)N[C@@H](Cc2ccccc2)C(=O)O)ccc1N1CCN(C(c2ccccc2)c2ccccc2)CC1` (some centres unmarked) [Example 3], the ED50 in data set [2] and in data set [3] was 500 ppm in each case. The IC50 in data set [1] was 31.6 µM.

In the case of `CC(C)(CN)CN(C(=O)c1cccs1)c1ccc(-c2ccc(N3CCN(c4ccccn4)CC3)c(NC(=O)CCC3CCCC3)c2)cc1` [Example 4], the ED50 in data set [2] and in [3] was 500 ppm each time. For the same molecule, the IC50 in data set [1] is 39.8 µM.

For the molecule `COc1ccc(CN(CC(C)(C)CN)C(=O)c2cccc(C)c2)cc1-c1ccc(N2CCC(Cc3ccccc3)CC2)c(NC(=O)c2cccs2)c1` [Example 5], the ED50 in data set [4], in [5], in data set [6], in [7], in [2] and in [8] was 548 ppm each time. Moreover, in [1], the IC50 was 25.1 µM.

One may read the Km as the concentration of substrate that gives half-maximal velocity. In the case of `CC(C)=CCOP(=O)(O)OP(=O)(O)O` [dimethylallyl pyrophosphate], in data set [9], the Km was 36 µM.

B1: yeast farnesyl-pyrophosphate synthase (Saccharomyces cerevisiae S288C) (protein)
chain: MASEKEIRRERFLNVFPKLVEELNASLLAYGMPKEACDWYAHSLNYNTPGGKLNRGLSVVDTYAILSNKTVEQLGQEEYEKVAILGWCIELLQAYFLVADDMMDKSITRRGQPCWYKVPEVGEIAINDAFMLEAAIYKLLKSHFRNEKYYIDITELFHEVTFQTELGQLMDLITAPEDKVDLSKFSLKKHSFIVTFKTAYYSFYLPVALAMYVAGITDEKDLKQARDVLIPLGEYFQIQDDYLDCFGTPEQIGKIGTDIQDNKCSWVINKALELASAEQRKTLDENYGKKDSVAEAKCKKIFNDLKIEQLYHEYEESIAKDLKAKISQVDESRGFKADVLTAFLNKVYKRSK
Turning to B1, the Km in data set [10] worked out at 49 µM.
